# Patent US3959468A, “Antibiotic equisetin and method of production” (The United States of America as represented by the …, priority 1974, dated 1976)
# Like-named read-outs stand apart in the source and are kept apart here.
# Legend:
# M. rhodochrus = assay: Minimum inhibitory concentration, agar streak test on TGY agar (M. rhodochrus); assay type: cell-based; conditions: NRRL B-2141, 37° C., 24 and 48 hr., read-out: Antimicrobial agent MIC
# Method: (§1) Minimum inhibitory concentrations for microorganisms. The F. equiseti NRRL 5537 antibiotic was diluted in ethanol. Streptomycin sulfate and isoniazid were diluted in water. Amounts up to 1 ml. were added to TGY agar to provide the desired double dilution test concentrations. Minimum inhibitory concentrations of the antimicrobial agents were determined by streaking a loopful of standardized suspensions of 24- to 48-hr. cultures of selected microorganisms onto the surface of 20 ml. of the modified TGY agar in a standard petri dish. Microorganisms were cultured on TGY agar slants and diluted with TGY broth to yield a transmittance of about 90% at 600 nm. in a Spectronic-20 spectrophotometer. All cultures grew on control plates containing 1 ml. ethanol per 100 ml. TGY agar. Bacteria were incubated at 37° C. and the fungi at room temperature.
# Bacillus subtilis = assay: Minimum inhibitory concentration, agar streak test on TGY agar (B. subtilis); assay type: cell-based
# Method: as §1
# Mycobacterium phlei = assay: Minimum inhibitory concentration, agar streak test on TGY agar (M. phlei); assay type: cell-based; conditions: Mycolicibacterium phlei, TGY agar, 37° C., 24 and 48 hr., read-out: Antimicrobial agent MIC
# Method: as §1
# Neisseria perflava = assay: Minimum inhibitory concentration, agar streak test on TGY agar (N. perflava); assay type: cell-based
# Method: as §1
# M. smegmatis = assay: Minimum inhibitory concentration, agar streak test on TGY agar (M. smegmatis); assay type: cell-based; conditions: Mycolicibacterium smegmatis, NRRLB612, NRRL B-612, 37° C., 24 and 48 hr., read-out: Antimicrobial agent MIC
# Method: as §1
# Staphylococcus aureus = assay: Minimum inhibitory concentration, agar streak test on TGY agar (S. aureus); assay type: cell-based
# Method: as §1
# bacteria = conditions: cited from earlier work
# [1] = NRRLB543, NRRL B-543, TGY agar, 37° C., 24 and 48 hr., read-out: Antimicrobial agent MIC
compound,measurement,setting,value
NNC(=O)c1ccncc1 [Isoniazid],MIC,M. rhodochrus,64 µg/mL
same,MIC,"Bacillus subtilis; B. subtilis strains, Table 1 footnote 1 (explains the dashes), read-out: not inhibited by (isoniazid per ml. medium)",> 128 µg/mL
same,MIC,Bacillus subtilis; [1],128 µg/mL
same,MIC,"Mycobacterium phlei; NRRLB609, NRRL B-609",4 µg/mL
same,MIC,"Mycobacterium phlei; NRRLB610, NRRL B-610",4 µg/mL
same,MIC,"Mycobacterium phlei; NRRLB4051, NRRL B-4051",4 µg/mL
same,MIC,"Neisseria perflava; N. perflava strains, Table 1 footnote 1 (explains the dashes), read-out: not inhibited by (isoniazid per ml. medium)",> 128 µg/mL
same,MIC,M. smegmatis,4 µg/mL
same,MIC,"Staphylococcus aureus; S. aureus strains, Table 1 footnote 1 (explains the dashes), read-out: not inhibited by (isoniazid per ml. medium)",> 128 µg/mL
[H]/N=C(/N)N[C@H]1[C@H](O)[C@@H](O)[C@H](O[C@@H]2O[C@@H](C)[C@](O)(C=O)[C@H]2O[C@@H]2O[C@@H](CO)[C@H](O)[C@@H](O)[C@@H]2NC)[C@@H](N/C(N)=N\[H])[C@@H]1O [Streptomycin],MIC,M. rhodochrus,2 µg/mL
same,MIC,Bacillus subtilis; [1],4 µg/mL
same,MIC,"Bacillus subtilis; NRRLB558, NRRL B-558, TGY agar, 37° C., 24 and 48 hr., read-out: Antimicrobial agent MIC",8 µg/mL
same,MIC,"Bacillus subtilis; NRRLB644, NRRL B-644, TGY agar, 37° C., 24 and 48 hr., read-out: Antimicrobial agent MIC",2 µg/mL
same,MIC,"Bacillus subtilis; NRRLB765, NRRL B-765, TGY agar, 37° C., 24 and 48 hr., read-out: Antimicrobial agent MIC",2 µg/mL
same,MIC,"Bacillus subtilis; NRRLB972, NRRL B-972, TGY agar, 37° C., 24 and 48 hr., read-out: Antimicrobial agent MIC",8 µg/mL
same,MIC,"Bacillus subtilis; NRRLB1650, NRRL B-1650, TGY agar, 37° C., 24 and 48 hr., read-out: Antimicrobial agent MIC",8 µg/mL
same,MIC,"Bacillus subtilis; NRRLB3284, NRRL B-3284, TGY agar, 37° C., 24 and 48 hr., read-out: Antimicrobial agent MIC",4 µg/mL
same,MIC,"Mycobacterium phlei; NRRLB609, NRRL B-609",2 µg/mL
same,MIC,"Mycobacterium phlei; NRRLB610, NRRL B-610",2 µg/mL
same,MIC,"Mycobacterium phlei; NRRLB4051, NRRL B-4051",2 µg/mL
same,MIC,"Neisseria perflava; NRRLB1458, NRRL B-1458, TGY agar, 37° C., 24 and 48 hr., read-out: Antimicrobial agent MIC",2 µg/mL
same,MIC,"Neisseria perflava; NRRLB1788, NRRL B-1788, TGY agar, 37° C., 24 and 48 hr., read-out: Antimicrobial agent MIC",2 µg/mL
same,MIC,"Neisseria perflava; NRRLB1789, NRRL B-1789, TGY agar, 37° C., 24 and 48 hr., read-out: Antimicrobial agent MIC",2 µg/mL
same,MIC,"Neisseria perflava; NRRLB1790, NRRL B-1790, TGY agar, 37° C., 24 and 48 hr., read-out: Antimicrobial agent MIC",2 µg/mL
same,MIC,"Neisseria perflava; NRRLB1791, NRRL B-1791, TGY agar, 37° C., 24 and 48 hr., read-out: Antimicrobial agent MIC",4 µg/mL
same,MIC,M. smegmatis,2 µg/mL
same,MIC,"Staphylococcus aureus; NRRLB120, NRRL B-120, TGY agar, 37° C., 24 and 48 hr., read-out: Antimicrobial agent MIC",2 µg/mL
same,MIC,"Staphylococcus aureus; NRRLB124, NRRL B-124, TGY agar, 37° C., 24 and 48 hr., read-out: Antimicrobial agent MIC",4 µg/mL
same,MIC,"Staphylococcus aureus; NRRLB313, NRRL B-313, TGY agar, 37° C., 24 and 48 hr., read-out: Antimicrobial agent MIC",2 µg/mL
same,MIC,"Staphylococcus aureus; NRRLB678, NRRL B-678, TGY agar, 37° C., 24 and 48 hr., read-out: Antimicrobial agent MIC",8 µg/mL
same,MIC,"Staphylococcus aureus; NRRLB1317, NRRL B-1317, TGY agar, 37° C., 24 and 48 hr., read-out: Antimicrobial agent MIC",4 µg/mL
same,MIC,"Staphylococcus aureus; NRRLB1318, NRRL B-1318, TGY agar, 37° C., 24 and 48 hr., read-out: Antimicrobial agent MIC",8 µg/mL
same,MIC,"Staphylococcus aureus; NRRLB2746, NRRL B-2746, TGY agar, 37° C., 24 and 48 hr., read-out: Antimicrobial agent MIC",2 µg/mL
O=C1C=CCO1 [butenolide],antibacterial properties,bacteria,either lack or only exhibit weak antibacterial properties
